Tests used:
TSLP = assay: Inhibition of cytokine expression in TNF alpha-induced HaCaT cell (Real-time PCR): TSLP; type: cell-based, human; conditions: TNFα 50 ng/ml, Dexamethasone 200 nM, TNFα+DIW control 132.4692
Protocol: (§1) In order to determine the anti-inflammatory activity of inventive extract, following inhibition test of cytokine expression using HaCaT cell was performed according to the procedure disclosed in the literature (Jeong et al., 2019, J. Invest. Dermatol., May; 139 (5): pp 1098-1109).
(§2) HaCaT cell (human epithelial keratinocyte cell, 300493, CLS) was inoculated into DMEM medium containing 10% Fetal bovine serum, 100 units/ml of penicillin, 100 μg/ml of streptomycin (D6429, Sigma-Aldrich Co. Ltd) and was incubated in the incubator (HERA cell 150i, Thermo Fisher Scientific Co. Ltd.) maintaining optimum humidity (85-95%) and 5% CO2 atmosphere.
(§3) For performing gene expression test, the incubated cells were transferred to 12 wells and 50 ng/ml of TNF alpha (RC214-12, Biobasic Co. Ltd) was treated therewith for 1 hour to induce inflammatory response.
(§4) 1 hour after inducing the inflammation, 1 μg/ml of inventive extract prepared in Examples was treated with identical medium and subjected to incubation for 1 hour. After the incubation, RNA (FATRR-001, Favorgen) was extracted from the cell and cDNA was synthesized from the RNA using by cDNA synthesis kit (RRO36A, TAKARA). […]

IL-1β = assay: Inhibition of cytokine expression in TNF alpha-induced HaCaT cell (Real-time PCR): IL-1β; type: cell-based, human; conditions: TNFα 50 ng/ml, Dexamethasone 200 nM, TNFα+DIW control 4.152715
Protocol: as §1, §2, §3, §4

[1] = tested on: MIA(Monosodium iodoacetate)-induced osteoarthritis rat model; assay: Pain threshold (dynamic plantar aesthesiometer) in MIA-induced osteoarthritis rat model; type: in vivo
Protocol: (§5) In order to evaluate the efficacy of test sample on MIA(Monosodium iodoacetate)-induced osteoarthritis rat model, following test was performed at “Joint and Immune disease T2B center(chief MD. PARK, Sung-whan) located in “The Catholic University of Korea, Seoul ST. Mary's Hospital, Seoul).
(§6) (1) Test animals: Rats (Male Wista rats, Central Lab. Animal, Seoul, Korea, 7 to 8 weeks aged, 200 to 250 g) were bred in the well-controlled breeding room in polysulfone cage (2-3 […] per cage) maintaining the temperature of 21±2° C. and relative humidity of 50±20% with the light cycle of day/dark (08:00˜20:00) at the interval of 12 hours and acclimated to the surround environment
(§7) Test method: 3 mg/kg of Monosodium iodoacetate (MIA, 12512, Sigma, Poole, UK) was dissolved in the injection saline to re reach to 60 mg/ml concentration on the day of the experiment (day 0). After dividing each groups, the experimental animals were placed in the anesthesia chamber and anesthetized with diethyl ether. 50 μL of MIA (3 mg/body) was injected into the right knee joint through the infrapatellar ligament using a 1cc syringe (26.5 gauge) in order to inducing osteoarthritis
(§8) (4) Treatment route: oral administration 3 days after inducing osteoarthritis (once a day)
(§9) After inducing osteoarthritis with MIA, test sample treatment groups (G2, G3) were prepared by homogenizing the test samples with vehicle (saline) according to the prescribed dose and orally administrating 1 mL of test sample once a day.
The positive control group (G4) was homogenized to the vehicle according to the prescribed dose and orally administered once a day.
24 rats were divided into 4 groups per 6 rats, and the test samples and positive control substance were orally administered at a specified time.
The pain threshold (nociceptive latency, threshold) was determined by using dynamic plantar aesthesiometer (Ugo Basile, 37400, Comerio, Italy), a device that gradually increases the force on the feet of Male Wistarats over a certain period of time, according to a […] evaluation method to measure pain thresholds ((Kwon J Y et al., Sci Rep. 2018 Sep. 14; 8(1):13832)
Prior to measurement, the animal was placed in an acrylic box with a wire mesh bench and acclimated for five minutes.
The pain threshold was determined by measuring the weight showing paw withdrawal behavior which animal withdraws its feet by applying a slow force of 0 to 50 g over 10 seconds using metal filaments in the center of each animal's right hind foot.
To avoid tissue damage, the cut-off threshold was set to 50 g, and the measurement time was set to the day before the inducing day of osteoarthritis by the treatment of MIA to calculate base line value in the normal control group (G1), test sample groups (G2, G3) and positive control group (G4) and the same value was obtained in the base line (day 3).
The same value was measured before the treatment of test samples (day 3) and the value was measured once a week at a certain time by administering the test samples in the […] of rats.
The test result of pain threshold was calculated according to (a) paw withdrawal latencies (sec) and (b) paw withdrawal threshold (g).

[2] = tested on: MIA(Monosodium iodoacetate)-induced osteoarthritis rat model; assay: Weight bearing in MIA-induced osteoarthritis rat model; type: in vivo
Protocol: as §5, §6, §7, §8, §9
In order to measure the change in weight (or weight distribution) between normal hind legs (left) and arthritis-induced hind legs (right), the load of both hind feet was determined using testing apparatus (Model 600, IITC, USA) according to the method described in the literature (Kwon J Y et al., Sci Rep. 2018 Sep. 14; 8(1):13832).
The test animal shall be correctly located in the holder and fixed so that both feet can be stepped symmetrically, since the load can be varied depending on the position of the animal's foot. The particular person performs the fixation to reduce the possible error to the maximum extent.
When each animal was correctly located in the holder, the machine was operated and the weight bearing of each group was measured twice for 5 seconds per measurement.
The mean value for each test result was digitized into the weight bearing(g) of each foot.
After obtaining a baseline value before MIA treatment (Day 0), the weight bearing in the normal control group (G1), test sample groups (G2, G3) and positive control group (G4), was determined at a certain time twice a week, 3 days before the treatment of test sample (day 3).
The test results of the weight load measurement were transformed into each weight bearing ratio according to below Math 1.
Weight ratio (%)={weight of right hind limb/(weight of right hind limb+weight of left hind limb)}×100 [Math.1]

[3] = tested on: MIA(Monosodium iodoacetate)-induced osteoarthritis rat model; assay: Bone injury by micro-CT in MIA-induced osteoarthritis rat model; type: in vivo; conditions: 30 mg/kg oral once a day; vehicle 45.7
Protocol: as §5, §6
(§10) Test method: 3 mg/kg of Monosodium iodoacetate (MIA, 12512, Sigma, Poole, UK) was dissolved in the injection saline to re reach to 60 mg/ml concentration on the day of the experiment (day 0). […]
The degree of bone injury around femur area of the knee joint in each group consisting of 3 rats, was determined using X-ray source (70 kV, 142 uA, AI 0.5 mm filter, rotation step 0.6°) and animal scanner (SKYSCAN1272 ex-vivo micro-CT, Bruker micro CT, Belgium) to perform micro-CT photography at 15 μm of Pixel resolution including section formation (NRecon), section rotation (Data Viewer), data Analysis (CTAN), Volume rendering generation (CTVox), and surface rendering (CTAN+CTVol).

[4] = tested on: MIA(Monosodium iodoacetate)-induced osteoarthritis rat model; assay: Bone injury by histopathological analysis (Safranin O; Total Mankin score, OARSI score) in MIA-induced osteoarthritis rat model; type: in vivo; conditions: 30 mg/kg oral once a day
Protocol: as §5, §6
as §10, with “0). After dividing each groups, the experimental animals were placed in the anesthesia chamber and anesthetized with diethyl ether.” for “0).”
The histopathological analysis was performed by photographing the femur area of knee joint (×200 fold). The test result was calculated and evaluated according to the known methods including Total Mankin score (Bulstra S K et al., 1989, Clin Orthop Relat Res: 294-302.) and OARSI score (Pritzker K. P. H. et al., 2006, Osteoarthritis Cartilage 14:13-29).

## C[C@@H]1C[C@H]2[C@@H]3CCC4=CC(=O)C=C[C@]4(C)[C@@]3(F)[C@@H](O)C[C@]2(C)[C@@]1(O)C(=O)CO [Dex, Dexamethasone]
TSLP
  TSLP expression (RT-PCR, relative to untreated = 1): 52.49
IL-1β
  IL-1β expression (RT-PCR, relative to untreated = 1): 1.081

## Cc1ccc(-c2cc(C(F)(F)F)nn2-c2ccc(S(N)(=O)=O)cc2)cc1 [Celecoxib]
[1]; 30 mg/kg oral once a day, 6 days after MIA treatment, vehicle 8.6
  paw withdrawal latencies: 9.9 ± 2.2 s
[1]; 30 mg/kg oral once a day, 6 days after MIA treatment, vehicle 17.4
  paw withdrawal threshold: 19.9 ± 4.3 g
[1]; 30 mg/kg oral once a day, 11 days after MIA treatment, vehicle 9.1
  paw withdrawal latencies: 10.2 ± 0.9 s
[1]; 30 mg/kg oral once a day, 11 days after MIA treatment, vehicle 18.5
  paw withdrawal threshold: 20.7 ± 1.7 g
[1]; 30 mg/kg oral once a day, 13 days after MIA treatment, vehicle 9.0
  paw withdrawal latencies: 10.4 ± 0.9 s
[1]; 30 mg/kg oral once a day, 13 days after MIA treatment, vehicle 18.3
  paw withdrawal threshold: 21.0 ± 1.6 g
[1]; 30 mg/kg oral once a day, 17 days after MIA treatment, vehicle 9.5
  paw withdrawal latencies: 10.9 ± 1.8 s
[1]; 30 mg/kg oral once a day, 17 days after MIA treatment, vehicle 19.2
  paw withdrawal threshold: 22.0 ± 3.4 g
[1]; 30 mg/kg oral once a day, 21 days after MIA treatment, vehicle 9.0
  paw withdrawal latencies: 11.9 ± 1.5 s
[1]; 30 mg/kg oral once a day, 21 days after MIA treatment, vehicle 18.3
  paw withdrawal threshold: 24.0 ± 2.9 g
[1]; 30 mg/kg oral once a day, 25 days after MIA treatment, vehicle 9.0
  paw withdrawal latencies: 11.6 ± 1.0 s
[1]; 30 mg/kg oral once a day, 25 days after MIA treatment, vehicle 18.2
  paw withdrawal threshold: 23.4 ± 1.9 g
[1]; 30 mg/kg oral once a day, Before MIA treatment (baseline), vehicle 16.8
  paw withdrawal latencies: 16.0 ± 1.5 s
[1]; 30 mg/kg oral once a day, Before MIA treatment (baseline), vehicle 33.6
  paw withdrawal threshold: 33.8 ± 2.9 g
[1]; 30 mg/kg oral, 3 days after MIA treatment (before first dose), vehicle 9.4
  paw withdrawal latencies: 9.2 ± 2.1 s
[1]; 30 mg/kg oral, 3 days after MIA treatment (before first dose), vehicle 19.0
  paw withdrawal threshold: 18.6 ± 4.1 g
[2]; 30 mg/kg oral once a day, 6 days after MIA inducement, vehicle 35.5
  weight bearing, weight ratio of right hind limb: 38.5 ± 1.8%
[2]; 30 mg/kg oral once a day, 11 days after MIA inducement, vehicle 33.8
  weight bearing, weight ratio of right hind limb: 40.0 ± 3.2%
[2]; 30 mg/kg oral once a day, 13 days after MIA inducement, vehicle 32.3
  weight bearing, weight ratio of right hind limb: 44.5 ± 0.7%
[2]; 30 mg/kg oral once a day, 17 days after MIA inducement, vehicle 32.2
  weight bearing, weight ratio of right hind limb: 43.9 ± 1.3%
[2]; 30 mg/kg oral once a day, 21 days after MIA inducement, vehicle 31.6
  weight bearing, weight ratio of right hind limb: 39.7 ± 3.7%
[2]; 30 mg/kg oral once a day, 25 days after MIA inducement, vehicle 33.3
  weight bearing, weight ratio of right hind limb: 41.7 ± 1.9%
[2]; 30 mg/kg oral once a day, Before MIA inducement (baseline), vehicle 50.6
  weight bearing, weight ratio of right hind limb: 49.3 ± 0.9%
[2]; 30 mg/kg oral, 3 days after MIA inducement (before first dose), vehicle 36.9
  weight bearing, weight ratio of right hind limb: 34.7 ± 4.0%
[3]
  Bone surface (Micro-CT, femur area of knee joint): 57.5 ± 0.5%
[4]; vehicle 4
  OARSI score: 2.4 ± 0.4
[4]; vehicle 7.5
  Total Mankin score: 4 ± 0.6
